Patent publication US10941157B2, “Pesticidal compositions and uses thereof” (Gilead Apollo, LLC, priority 2015, dated 2021)
≈ marks a conversion by molar mass, not a printed value.

Experiments:
Type in all cases: cell-based
[1] = system: Phytophthora capsici (Pc); assay: In vitro pathogen growth inhibition assay, Pc; conditions: 48 h, ≥90% inhibition, 48 hours vs 2% DMSO control, read-out: Compound Concentration (ppm) sufficient for ≥90% inhibition of growth, Pc
Method in brief: (§1)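 Value reported is the compound concentration reaching ≥90% growth inhibition, from OD readings at 24 and 48 h after blank subtraction, confirmed visually. Inoculum was spores diluted in 17% V8 medium, except Rs, using 1.5 mm mycelial plugs in ¼ PDB; actual compound concentration corrected via OD600.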

Rhizoctonia solani (Rs) = assay: In vitro pathogen growth inhibition assay, Rs (mycelial plugs); conditions: Rhizoctonia solani, 48 h, ≥90% inhibition; mycelial plugs; 48 hours vs 2% DMSO control; read-out: Compound Concentration (ppm) sufficient for ≥90% inhibition of growth, Rs
Method in brief: as §1

Diplodia maydis (Dm) = assay: In vitro pathogen growth inhibition assay, Dm; conditions: Stenocarpella maydis, 48 h, ≥90% inhibition; 48 hours vs 2% DMSO control; read-out: Compound Concentration (ppm) sufficient for ≥90% inhibition of growth, Dm
Method in brief: as §1

[2] = system: Fusarium virguliforme (Fv); assay: In vitro pathogen growth inhibition assay, Fv; conditions: ≥90% inhibition, 48 hours vs 2% DMSO control, read-out: Compound Concentration (ppm) sufficient for ≥90% inhibition of growth, Fv
Method in brief: as §1

[3] = system: Collectotrichum graminicola (Cg); assay: In vitro pathogen growth inhibition assay, Cg; conditions: 48 h, ≥90% inhibition; 48 hours vs 2% DMSO control; read-out: Compound Concentration (ppm) sufficient for ≥90% inhibition of growth, Cg
Method in brief: as §1

Botrtyis cinerea (Bc) = assay: In vitro pathogen growth inhibition assay, Bc; conditions: 48 h, ≥90% inhibition; 48 hours vs 2% DMSO control; read-out: Compound Concentration (ppm) sufficient for ≥90% inhibition of growth, Bc
Method in brief: as §1

Septoria tritici (St) = assay: In vitro pathogen growth inhibition assay, St; conditions: Zymoseptoria tritici, 48 h, ≥90% inhibition; 48 hours vs 2% DMSO control; read-out: Compound Concentration (ppm) sufficient for ≥90% inhibition of growth, St
Method in brief: as §1

[4] = system: Saccharomyces cerevisiae (Sc); assay: Yeast growth inhibition assay; conditions: Saccharomyces cerevisiae, ≥75% inhibition, read-out: Compound Concentration (ppm) sufficient for ≥75% inhibition, Sc
Procedure: Both tables list the concentration of each compound that was sufficient to ≥90% inhibition of growth for each of the fungal pathogens listed above. In addition, some of compounds were tested in a yeast growth inhibition assay for Saccharomyces cerevisiae (Sc). Table 2 lists the concentration of the tested compound that was sufficient to ≥75% inhibition of Saccharomyces cerevisiae (Sc).

[5] = system: Fusarium moniliforme (Fm); assay: In vitro pathogen growth inhibition assay, Fm; conditions: Fusarium verticillioides; ≥90% inhibition; 48 hours vs 2% DMSO control; read-out: Compound Concentration (ppm) sufficient for ≥90% inhibition of growth, Fm
Method in brief: as §1

Compound	IC90 [1]	IC90 (Rhizoctonia solani (Rs))	IC90 (Diplodia maydis (Dm))	IC90 [2]	IC90 [3]	IC90 (Botrtyis cinerea (Bc))	IC90 (Septoria tritici (St))	IC75 [4]	IC90 [5]
CCOC(=O)c1sc2c(c1C)c(=O)n(C(C)(C)C(=O)NC(C)C)c(=O)n2C[C@H](OC(C)C)c1ccccc1OC [Compound I-009]	> 50 µg/mL	10 µg/mL (≈ 17.4 µM)	0.4 µg/mL (≈ 0.697 µM)	0.4 µg/mL (≈ 0.697 µM)	2 µg/mL (≈ 3.49 µM)	0.4 µg/mL (≈ 0.697 µM)	> 50 µg/mL	3.7 µg/mL (≈ 6.45 µM)	0.08 µg/mL (≈ 0.139 µM)
COc1ccccc1[C@H](Cn1c(=O)n(C(C)(C)C(=O)N2CCCCC2)c(=O)c2c(C)c(-c3ncco3)sc21)O[C@H]1CC[C@@H](O)CC1 [Compound I-110]	> 50 µg/mL	50 µg/mL (≈ 76.8 µM)	10 µg/mL (≈ 15.4 µM)	2 µg/mL (≈ 3.07 µM)	> 50 µg/mL	2 µg/mL (≈ 3.07 µM)	> 50 µg/mL	33.3 µg/mL (≈ 51.2 µM)	0.4 µg/mL (≈ 0.615 µM)
CCOC(=O)c1sc2c(c1C)c(=O)n(C(C)(C)C(=O)O)c(=O)n2C[C@H](OC(C)C)c1ccccc1OC [Compound I-153]	> 50 µg/mL	50 µg/mL (≈ 93.9 µM)	50 µg/mL (≈ 93.9 µM)	> 50 µg/mL	> 50 µg/mL	2 µg/mL (≈ 3.76 µM)	> 50 µg/mL	> 33.3 µg/mL	2 µg/mL (≈ 3.76 µM)
COc1ccccc1[C@H](Cn1c(=O)n(C(C)(C)C(=O)N2CCOCC2)c(=O)c2c(C)c(-c3ncco3)sc21)OC(C)C [Compound I-143]	> 50 µg/mL	> 50 µg/mL	10 µg/mL (≈ 16.8 µM)	≥ 10 µg/mL	50 µg/mL (≈ 83.8 µM)	2 µg/mL (≈ 3.35 µM)	> 50 µg/mL	11 µg/mL (≈ 18.4 µM)	2 µg/mL (≈ 3.35 µM)
COc1ccccc1[C@H](Cn1c(=O)n(C(C)(C)C(N)=O)c(=O)c2c(C)c(-c3ncco3)sc21)OC1CCC(=O)CC1 [Compound I-154]	> 50 µg/mL	> 50 µg/mL	10 µg/mL (≈ 17.2 µM)	50 µg/mL (≈ 86.1 µM)	50 µg/mL (≈ 86.1 µM)	2 µg/mL (≈ 3.44 µM)	> 50 µg/mL	3.7 µg/mL (≈ 6.37 µM)	2 µg/mL (≈ 3.44 µM)
COc1ccccc1[C@H](Cn1c(=O)n(C(C)(C)C(=O)NC2CCC2)c(=O)c2c(C)c(-c3ncco3)sc21)OC(C)C [Compound I-098]	> 50 µg/mL	10 µg/mL (≈ 17.2 µM)	2 µg/mL (≈ 3.44 µM)	10 µg/mL (≈ 17.2 µM)	10 µg/mL (≈ 17.2 µM)	2 µg/mL (≈ 3.44 µM)	> 50 µg/mL	11 µg/mL (≈ 18.9 µM)	0.4 µg/mL (≈ 0.689 µM)
COc1ccc(F)cc1[C@H](Cn1c(=O)n(C(C)(C)C(N)=O)c(=O)c2c(C)c(-c3ncco3)sc21)O[C@H]1CC[C@@H](O)CC1 [Compound I-103]	> 50 µg/mL	50 µg/mL (≈ 83.2 µM)	10 µg/mL (≈ 16.6 µM)	2 µg/mL (≈ 3.33 µM)	50 µg/mL (≈ 83.2 µM)	2 µg/mL (≈ 3.33 µM)	> 10 µg/mL	1.2 µg/mL (≈ 2 µM)	0.4 µg/mL (≈ 0.666 µM)
COc1ccc(F)cc1[C@H](Cn1c(=O)n(C(C)(C)C(=O)N2CCOCC2)c(=O)c2c(C)c(-n3cccn3)sc21)OC(C)C [Compound I-151]	> 50 µg/mL	> 50 µg/mL	10 µg/mL (≈ 16.3 µM)	2 µg/mL (≈ 3.26 µM)	50 µg/mL (≈ 81.5 µM)	10 µg/mL (≈ 16.3 µM)	> 50 µg/mL	11 µg/mL (≈ 17.9 µM)	2 µg/mL (≈ 3.26 µM)
CCOC(=O)c1sc2c(c1C)c(=O)n(C(C)(C)C(=O)N1CCCC1)c(=O)n2C[C@H](OC(C)C)c1ccccc1OC [Compound I-007]	> 50 µg/mL	0.08 µg/mL (≈ 0.137 µM)	0.4 µg/mL (≈ 0.683 µM)	0.4 µg/mL (≈ 0.683 µM)	0.4 µg/mL (≈ 0.683 µM)	0.4 µg/mL (≈ 0.683 µM)	≥ 2 µg/mL	0.4 µg/mL (≈ 0.683 µM)	0.08 µg/mL (≈ 0.137 µM)
COc1ccc(F)cc1[C@H](Cn1c(=O)n(C(C)(C)C(N)=O)c(=O)c2c(C)c(-n3nccn3)sc21)OC1CCOCC1 [Compound I-102]	10 µg/mL (≈ 17 µM)	≥ 2 µg/mL	2 µg/mL (≈ 3.41 µM)	2 µg/mL (≈ 3.41 µM)	2 µg/mL (≈ 3.41 µM)	2 µg/mL (≈ 3.41 µM)	≥ 50 µg/mL	1.2 µg/mL (≈ 2.05 µM)	0.4 µg/mL (≈ 0.682 µM)
COc1ccccc1[C@H](Cn1c(=O)n(C(C)(C)C(=O)NC(C)C)c(=O)c2c(C)c(-c3ncco3)sc21)O[C@H]1CC[C@@H](O)CC1 [Compound I-012]	> 50 µg/mL	50 µg/mL (≈ 80 µM)	2 µg/mL (≈ 3.2 µM)	2 µg/mL (≈ 3.2 µM)	10 µg/mL (≈ 16 µM)	0.4 µg/mL (≈ 0.64 µM)	≥ 10 µg/mL	0.14 µg/mL (≈ 0.224 µM)	0.08 µg/mL (≈ 0.128 µM)
COc1ccccc1[C@H](Cn1c(=O)n(C(C)(C)C(=O)OCc2ccccc2)c(=O)c2c(C)c(-c3ncco3)sc21)OC1CCC(=O)CC1 [Compound I-107]	> 50 µg/mL	> 50 µg/mL	≥ 0.4 µg/mL	> 50 µg/mL	> 50 µg/mL	0.4 µg/mL (≈ 0.595 µM)	> 50 µg/mL	> 33.3 µg/mL	0.4 µg/mL (≈ 0.595 µM)
CCOC(=O)c1sc2c(c1C)c(=O)n(C(C)(C)C(=O)N1CCCCC1)c(=O)n2C[C@H](OC(C)C)c1ccccc1OC [Compound I-006]	> 50 µg/mL	0.4 µg/mL (≈ 0.667 µM)	0.4 µg/mL (≈ 0.667 µM)	0.4 µg/mL (≈ 0.667 µM)	0.4 µg/mL (≈ 0.667 µM)	0.4 µg/mL (≈ 0.667 µM)	≥ 2 µg/mL	1.2 µg/mL (≈ 2 µM)	0.08 µg/mL (≈ 0.133 µM)
CCNC(=O)C(C)(C)n1c(=O)c2c(C)c(-c3ncco3)sc2n(C[C@H](O[C@H]2CC[C@@H](O)CC2)c2ccccc2OC)c1=O [Compound I-010]	> 50 µg/mL	50 µg/mL (≈ 81.9 µM)	≥ 2 µg/mL	2 µg/mL (≈ 3.27 µM)	50 µg/mL (≈ 81.9 µM)	0.4 µg/mL (≈ 0.655 µM)	> 50 µg/mL	0.4 µg/mL (≈ 0.655 µM)	0.08 µg/mL (≈ 0.131 µM)
COc1ccccc1[C@H](Cn1c(=O)n(C(C)(C)C(=O)N2CCCCC2)c(=O)c2c(C)c(-c3ncco3)sc21)OC1CCOCC1 [Compound I-004]	> 50 µg/mL	10 µg/mL (≈ 15.7 µM)	2 µg/mL (≈ 3.14 µM)	2 µg/mL (≈ 3.14 µM)	2 µg/mL (≈ 3.14 µM)	0.4 µg/mL (≈ 0.628 µM)	> 10 µg/mL	3.7 µg/mL (≈ 5.81 µM)	0.08 µg/mL (≈ 0.126 µM)
CCOC(=O)c1sc2c(c1C)c(=O)n(C(C)(C)C(=O)NC(C)C)c(=O)n2C[C@H](OC1CCOCC1)c1ccccc1OC [Compound I-008]	> 50 µg/mL	10 µg/mL (≈ 16.2 µM)	2 µg/mL (≈ 3.25 µM)	2 µg/mL (≈ 3.25 µM)	2 µg/mL (≈ 3.25 µM)	0.4 µg/mL (≈ 0.65 µM)	> 10 µg/mL	3.7 µg/mL (≈ 6.01 µM)	0.08 µg/mL (≈ 0.13 µM)
COc1ccccc1[C@H](Cn1c(=O)n(C(C)(C)C(=O)N2CCCC2)c(=O)c2c(C)c(-c3ncco3)sc21)OC1CCC(=O)CC1 [Compound I-112]	> 50 µg/mL	50 µg/mL (≈ 78.8 µM)	10 µg/mL (≈ 15.8 µM)	10 µg/mL (≈ 15.8 µM)	≥ 2 µg/mL	2 µg/mL (≈ 3.15 µM)	50 µg/mL (≈ 78.8 µM)	3.7 µg/mL (≈ 5.83 µM)	0.4 µg/mL (≈ 0.63 µM)
COc1ccccc1[C@H](Cn1c(=O)n(C(C)(C)C(=O)NC(C)C)c(=O)c2c(C)c(-c3ncco3)sc21)OC(C)C [Compound I-001]	> 50 µg/mL	50 µg/mL (≈ 87.9 µM)	2 µg/mL (≈ 3.52 µM)	0.4 µg/mL (≈ 0.703 µM)	≥ 2 µg/mL	≥ 0.4 µg/mL	> 10 µg/mL	1.2 µg/mL (≈ 2.11 µM)	0.08 µg/mL (≈ 0.141 µM)
CCOC(=O)c1sc2c(c1C)c(=O)n(C(C)(C)C(N)=O)c(=O)n2C[C@H](OC(C)C)c1ccccc1OC [Compound I-155]	> 50 µg/mL	50 µg/mL (≈ 94.1 µM)	10 µg/mL (≈ 18.8 µM)	10 µg/mL (≈ 18.8 µM)	50 µg/mL (≈ 94.1 µM)	2 µg/mL (≈ 3.76 µM)	> 50 µg/mL	33.3 µg/mL (≈ 62.6 µM)	2 µg/mL (≈ 3.76 µM)
COc1ccc(F)cc1[C@H](Cn1c(=O)n(C(C)(C)C(N)=O)c(=O)c2c(C)c(-c3ncco3)sc21)OCC1CCC(=O)CC1 [Compound I-149]	> 50 µg/mL	> 50 µg/mL	50 µg/mL (≈ 81.6 µM)	2 µg/mL (≈ 3.26 µM)	50 µg/mL (≈ 81.6 µM)	10 µg/mL (≈ 16.3 µM)	> 50 µg/mL	11 µg/mL (≈ 18 µM)	2 µg/mL (≈ 3.26 µM)
